Assay [1] addresses T1, FCR1 (Rv3391) (Mycobacterium tuberculosis, UniProt O50417).
T1 construct: gene acrA1

Assay [2] addresses FCR2 (Rv1543) (Mycobacterium tuberculosis, UniProt P9WGS1).

The values below come from paper PMC3522743, “Wax Ester Synthesis is Required for Mycobacterium tuberculosis to Enter In Vitro Dormancy” (PLoS ONE, 2012).

Structures are written as SMILES.

T1 sequence (O50417 entry or part of it): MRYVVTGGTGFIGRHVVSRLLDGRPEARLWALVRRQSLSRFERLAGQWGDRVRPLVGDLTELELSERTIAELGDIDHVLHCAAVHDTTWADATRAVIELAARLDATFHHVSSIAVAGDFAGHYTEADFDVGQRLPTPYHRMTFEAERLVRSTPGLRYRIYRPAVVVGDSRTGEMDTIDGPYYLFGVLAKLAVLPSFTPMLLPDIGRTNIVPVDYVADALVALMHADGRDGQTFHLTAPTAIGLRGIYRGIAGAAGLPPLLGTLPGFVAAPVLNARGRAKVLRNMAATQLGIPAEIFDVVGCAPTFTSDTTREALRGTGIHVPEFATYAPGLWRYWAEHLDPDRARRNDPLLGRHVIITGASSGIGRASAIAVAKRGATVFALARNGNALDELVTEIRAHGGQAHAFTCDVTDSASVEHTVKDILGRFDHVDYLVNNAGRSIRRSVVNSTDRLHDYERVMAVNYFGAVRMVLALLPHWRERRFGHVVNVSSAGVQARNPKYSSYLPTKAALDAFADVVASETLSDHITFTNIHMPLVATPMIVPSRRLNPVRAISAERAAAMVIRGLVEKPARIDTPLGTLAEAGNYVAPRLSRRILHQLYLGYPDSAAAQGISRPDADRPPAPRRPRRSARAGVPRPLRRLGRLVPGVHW
FCR2 (Rv1543), sequence (P9WGS1 whole entry): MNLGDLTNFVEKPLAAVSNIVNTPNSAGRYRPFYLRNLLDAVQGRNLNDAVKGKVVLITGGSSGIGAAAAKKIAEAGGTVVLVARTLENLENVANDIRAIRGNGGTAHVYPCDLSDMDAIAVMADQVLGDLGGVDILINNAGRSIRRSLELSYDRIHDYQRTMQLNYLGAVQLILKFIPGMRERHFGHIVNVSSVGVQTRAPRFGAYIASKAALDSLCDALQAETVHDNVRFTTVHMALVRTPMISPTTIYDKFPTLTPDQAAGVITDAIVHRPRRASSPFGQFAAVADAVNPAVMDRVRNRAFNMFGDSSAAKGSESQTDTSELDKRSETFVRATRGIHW

As for `CCCCCCCC/C=C\CCCCCCCC(=O)SCCNC(=O)CCNC(=O)[C@H](O)C(C)(C)COP(=O)(O)OP(=O)(O)OC[C@H]1O[C@@H](n2cnc3c(N)ncnc32)[C@H](O)[C@@H]1OP(=O)(O)O` [oleoyl-CoA], the “14C product formation, TLC and scintillation counting, E. coli lysate” value in assay [1] is on record as “Both of these proteins showed typical substrate saturation with oleoyl-CoA (Fig. 3C, G)”; in assay [2], “Both of these proteins showed typical substrate saturation with oleoyl-CoA (Fig. 3C, G)”.
In the case of `NC(=O)C1=CN([C@@H]2O[C@H](COP(=O)(O)OP(=O)(O)OC[C@H]3O[C@@H](n4cnc5c(N)ncnc54)[C@H](OP(=O)(O)O)[C@@H]3O)[C@@H](O)[C@H]2O)C=CC1` [NADPH], the “14C product formation, TLC and scintillation counting, E. coli lysate” value in assay [1] is “Both FCR1 and FCR2 exhibited strong preference for NADPH as a cofactor”; in assay [2], “Both FCR1 and FCR2 exhibited strong preference for NADPH as a cofactor”.
